Biological target: T1, YycG' protein (Staphylococcus epidermidis, UniProt Q8CU87)
T1 construct: of YycG (370aa to 610aa) was amplified by PCR; His-tag (pET28a) (N); made in house; host or cells: E. coli BL21 (pET28a, pETYycG')
Experiment: Compound-YycG' protein binding assay (SPR, Biacore 3000)
Conditions: SPR sensorgram shape
Description: The YycG' fragment containing the cytoplasmic signal domains (the HATPase_c and HisKA domain, see Figure 1A) of YycG (370aa to 610aa) was amplified by PCR (with the chromosomal DNA of S. epidermidis ATCC12228 as the template, and (5' […] 3') and (5' […] 3') as the primers. Subsequently, the fragment was digested with BamHI and XholI (TAKARA, Japan) and ligated into the corresponding sites of pET28a (Promega, Madison, USA) to obtain pETYycG'. The expressed YycG' protein was purified with the ProBond™ Purification System (Invitrogen, California, USA), according to the manufacturer's protocol.
The in vitro binding affinities of the inhibitor compounds to the YycG' protein was determined using surface plasmon resonance (SPR) biosensor technology on the dual flow cell Biacore 3000 instrument (Biacore AB, Uppsala, Sweden) with a similar method as described in our previous study. Immobilization of the YycG' protein to the hydrophilic carboxymethylated dextran matrix of the sensor chip CM5 (Biacore) was carried out by the standard primary amine coupling reaction. […] The equilibrium constants (KD) evaluating the protein-ligand binding affinity were determined by the steady state or the kinetic state affinity fitting model encoded in the Biacore analysis software.

T1 sequence (Q8CU87 370-610): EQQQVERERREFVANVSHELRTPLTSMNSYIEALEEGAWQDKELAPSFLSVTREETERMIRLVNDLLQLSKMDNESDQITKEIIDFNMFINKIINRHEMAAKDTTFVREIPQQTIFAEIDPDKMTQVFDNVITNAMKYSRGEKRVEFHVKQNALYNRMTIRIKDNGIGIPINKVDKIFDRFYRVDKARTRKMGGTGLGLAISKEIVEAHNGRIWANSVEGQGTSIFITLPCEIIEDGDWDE

Question: For `Cc1ccc(NC(=O)CN2C(=O)S/C(=C\c3ccc(OCc4cccc(C(O)O)c4)cc3)C2=O)cc1` [Compound 7], which “Association/dissociation pattern in SPR” value is on record?
Answer: The value was “slow association and slow dissociation”.

From paper PMC1660542, “Structure-based discovery of inhibitors of the YycG histidine kinase: New chemical leads to combat Staphylococcus epidermidis infections” (BMC Microbiology, 2006)
